# Activity calls are given as the source filed them. The calls are words filed in the database; no cut-off is given here.
# Tests used:
# [1] = Aqueous solubility of compound; type: physicochemical
# [2] = Half life in BALB/c nude mouse at 15 mg/kg, ip measured after 24 hrs by LC-MS/MS analysis; type: ADME, organism-based; conditions: in vivo
# [3] = Metabolic stability in mouse plasma assessed as compound remaining measured after 60 mins by LC-MS/MS analysis; type: ADME, cell-free; conditions: read-out: Stability
# [4] = Cmax in BALB/c nude mouse at 10 mg/kg, po measured after 24 hrs by LC-MS/MS analysis; type: ADME, organism-based; design: dose 10 mg/kg, time 24 hrs, route po; conditions: in vivo
# [5] = Tmax in BALB/c nude mouse at 15 mg/kg, ip measured after 24 hrs by LC-MS/MS analysis; type: ADME, organism-based; conditions: in vivo
# [6] = tested on: Influenza A virus; assay: Antiviral activity against influenza A virus A/WSN/33 (H1N1) infected in MDCK cells assessed as effect on nucleoprotein expression at 20 uM pre-infected with virus for 30 mins followed by 1 hr incubation with cells; type: functional, organism-based; conditions: time 1.5 hrs
# [7] = Bioavailability in BALB/c nude mouse at 15 mg/kg, ip measured after 24 hrs by LC-MS/MS analysis; type: ADME, organism-based; conditions: in vivo
# [8] = Solubility of the compound in FeSSIF; type: physicochemical
# [9] = AUC (0 to t) in BALB/c nude mouse at 2 mg/kg, iv measured after 24 hrs by LC-MS/MS analysis; type: ADME, organism-based; design: time 24 hrs, dose 2 mg/kg, route iv; conditions: in vivo
# [10] = Tmax in BALB/c nude mouse at 10 mg/kg, po measured after 24 hrs by LC-MS/MS analysis; type: ADME, organism-based; conditions: in vivo
# [11] = AUC (0 to t) in BALB/c nude mouse at 15 mg/kg, ip measured after 24 hrs by LC-MS/MS analysis; type: ADME, organism-based; design: time 24 hrs, dose 15 mg/kg, route ip; conditions: in vivo
# [12] = tested on: Influenza A virus; assay: Antiviral activity against influenza A virus Flu (B/Lee/1940) infected in MDCK cells assessed as inhibition of cytopathic effect incubated for 48 hrs by MTT assay; type: functional, organism-based
# [13] = Half life in BALB/c nude mouse at 10 mg/kg, po measured after 24 hrs by LC-MS/MS analysis; type: ADME, organism-based; conditions: in vivo
# [14] = Cmax in BALB/c nude mouse at 2 mg/kg, iv measured after 24 hrs by LC-MS/MS analysis; type: ADME, organism-based; design: time 24 hrs, dose 2 mg/kg, route iv; conditions: in vivo
# [15] = tested on: Influenza A virus; assay: Antiviral activity against influenza A virus A/WSN/33 (H1N1) infected in MDCK cells assessed as reduction in matrix protein 2 expression at 20 uM cells pre-infected with virus for 1 hr followed by compound addition; type: functional, organism-based
# [16] = Metabolic stability in mouse plasma assessed as compound remaining measured after 30 mins by LC-MS/MS analysis; type: ADME, cell-free; conditions: read-out: Stability
# [17] = tested on: Influenza A virus; assay: Antiviral activity against influenza A virus A/WSN/33 (H1N1) infected in MDCK cells assessed as effect on nucleoprotein viral protein expression at 20 uM pretreated with cells for 1 hr followed by viral infection; type: functional, organism-based
# [18] = tested on: Erythrocyte; assay: Inhibition of hemagglutination in chicken RBC cells infected with Influenza A virus A/WSN/33 (H1N1) assessed as reduction in virus-induced agglutination of erythrocytes at 0.31 to 81 uM pretreated with H5 antigen for 30 mins followed by addition of chicken erythrocytes measured after 1 hr; type: functional, cell-based; conditions: Gallus gallus, dose 0.31-81 µM, time 1.5 hrs
# [19] = tested on: Influenza A virus; assay: Antiviral activity against influenza A virus A/WSN/33 (H1N1) infected in MDCK cells assessed as reduction in PB2 mRNA level at 20 uM measured after 5 to 8 hrs after viral infection by RT-PCR analysis; type: functional, organism-based; conditions: time 5-8 hrs
# [20] = tested on: Influenza A virus; assay: Antiviral activity against influenza A virus A/WSN/33 (H1N1) infected in MDCK cells assessed as effect on matrix protein 2 expression at 20 uM pre-infected with virus for 30 mins followed by 1 hr incubation with cells; type: functional, organism-based; conditions: time 1.5 hrs
# [21] = tested on: Influenza A virus; assay: Antiviral activity against influenza A virus H3N2(JX/312) infected in MDCK cells assessed as inhibition of cytopathic effect incubated for 48 hrs by MTT assay; type: functional, organism-based
# [22] = tested on: Influenza A virus; assay: Antiviral activity against Influenza A A/WSN/33 (H1N1) infected in BALB/c mouse assessed as survival ratio at 15 mg/kg/day, ip administered twice daily for 5 days starting from 1 hrs post infection and measured daily for 14 days relative to control; type: functional; conditions: time 14 day
# [23] = Metabolic stability in mouse liver S9 fraction assessed as intrinsic clearance at 10 uM incubated for 5 mins in presence of NADPH and UDPGA by LC-MS/MS analysis; type: ADME, subcellular; conditions: read-out: CLH
# [24] = Metabolic stability in mouse plasma assessed as compound remaining measured after 90 mins by LC-MS/MS analysis; type: ADME, cell-free; conditions: read-out: Stability
# [25] = Cytotoxicity against MDCK cells incubated for 48 hrs by MTT assay; type: toxicity, cell-based, Canis lupus familiaris; conditions: dog
# [26] = tested on: Influenza A virus; assay: Antiviral activity against influenza A virus A/WSN/33 (H1N1) infected in MDCK cells assessed as reduction in PB2 mRNA level at 20 uM measured upto 10 hrs after viral infection by RT-PCR analysis; type: functional, organism-based
# [27] = in vitro; conditions: dog, MDCK cells
# [28] = Half life in BALB/c nude mouse at 2 mg/kg, iv measured after 24 hrs by LC-MS/MS analysis; type: ADME, organism-based; conditions: in vivo
# [29] = tested on: Influenza A virus; assay: Antiviral activity against Influenza A A/WSN/33 (H1N1) infected in BALB/c mouse at 30 mg/kg/day, ip administered twice daily for 5 days starting from 1 hrs post infection and measured daily for 14 days; type: functional, organism-based; conditions: time 5.0 day
# [30] = tested on: Influenza A virus; assay: Antiviral activity against influenza A virus A/WSN/33 (H1N1) infected in MDCK cells assessed as increase in inhibition of luciferase activity pre-infected with virus for 1 hr followed by compound addition and measured after 24 hrs post infection; type: functional, organism-based; conditions: dose <= 6.0 nM
# [31] = tested on: Influenza A virus; assay: Antiviral activity against Influenza A A/WSN/33 (H1N1) infected in BALB/c mouse assessed as protection against body weight loss administered ip twice daily for 5 days starting from 1 hrs post infection and measured daily for 14 days; type: functional, organism-based; conditions: dose 7.5-30 mg/kg/day, time 5.0 day
# [32] = Metabolic stability in mouse plasma assessed as compound remaining measured after 120 mins by LC-MS/MS analysis; type: ADME, cell-free; conditions: read-out: Stability
# [33] = tested on: Influenza A virus; assay: Antiviral activity against influenza A virus A/WSN/33 (H1N1) infected in MDCK cells assessed as reduction in PB2 mRNA level at 20 uM measured after 2 to 5 hrs after viral infection by RT-PCR analysis; type: functional, organism-based; conditions: time 2-5 hrs
# [34] = tested on: Influenza A virus; assay: Antiviral activity against influenza A virus A/WSN/33 (H1N1) infected in MDCK cells assessed as reduction in nucleoprotein expression at 20 uM cells pre-infected with virus for 1 hr followed by compound addition; type: functional, organism-based
# [35] = tested on: Influenza A virus; assay: Antiviral activity against influenza A virus A/WSN/33 (H1N1) infected in MDCK cells assessed as reduction of ratio of pPOLI-Fluc to Renilla luciferase activity at 2.5 to 10 uM pre-infected with virus for 1 hr followed by compound addition and measured after 24 hrs post infection; type: functional, organism-based; conditions: dose 2.5-10 µM
# [36] = Oral bioavailability in BALB/c nude mouse at 10 mg/kg measured after 24 hrs by LC-MS/MS analysis; type: ADME, organism-based; conditions: in vivo
# [37] = AUC (0 to t) in BALB/c nude mouse at 10 mg/kg, po measured after 24 hrs by LC-MS/MS analysis; type: ADME, organism-based; design: time 24 hrs, dose 10 mg/kg, route po; conditions: in vivo
# [38] = Metabolic stability in mouse liver S9 fraction assessed as half life at 10 uM incubated for 5 mins in presence of NADPH and UDPGA by LC-MS/MS analysis; type: ADME, subcellular
# [39] = Solubility of the compound in FaSSIF; type: physicochemical
# [40] = Metabolic stability in mouse liver microsomes assessed as intrinsic clearance at 10 uM incubated for 5 mins in presence of NADPH by LC-MS/MS analysis; type: ADME, Microsome; conditions: read-out: CLH
# [41] = Clearance in BALB/c nude mouse at 2 mg/kg, iv measured after 24 hrs by LC-MS/MS analysis; type: ADME, organism-based; conditions: in vivo
# [42] = tested on: Influenza A virus; assay: Antiviral activity against influenza A virus A/WSN/33 (H1N1) infected in MDCK cells assessed as inhibition of cRNA synthesis pre-infected with virus for 1 hr followed by compound addition and measured after 24 hrs post infection by RT-qPCR analysis; type: functional, organism-based; conditions: dose 2.5-10 µM
# [43] = Distribution coefficient, logD of compound at pH 7.4; type: physicochemical; conditions: octanol/water
# [44] = tested on: Influenza A virus; assay: Antiviral activity against influenza A virus A/WSN/33 (H1N1) infected in MDCK cells assessed as effect on matrix protein 2 expression at 20 uM pretreated with cells for 1 hr followed by viral infection; type: functional, organism-based
# [45] = Metabolic stability in mouse liver microsomes assessed as half life at 10 uM incubated for 5 mins in presence of NADPH by LC-MS/MS analysis; type: ADME, Microsome
# [46] = Cmax in BALB/c nude mouse at 15 mg/kg, ip measured after 24 hrs by LC-MS/MS analysis; type: ADME, organism-based; design: time 24 hrs, dose 15 mg/kg, route ip; conditions: in vivo
# [47] = tested on: Influenza A virus; assay: Antiviral activity against influenza A virus H5N1(A/Duck/Guangdong/212/2004) infected in MDCK cells assessed as inhibition of cytopathic effect incubated for 48 hrs by MTT assay; type: functional, organism-based
structure (smiles),measurement,setting,value
CCCOC(=O)[C@@H]1Cc2cc(O)c(O)cc2[C@H](Cc2ccc(O)c(O)c2)N1C(=O)c1ccccc1Cl,solubility,[1],1.62 µM
same,half-life,[2],64.2 min
same,remaining at 1 h,[3],95.6%
same,Cmax,[4],92.2 ng/mL
same,Tmax,[5],27 min
same,Activity,[6],inactive
same,bioavailability,[7],29.5%
same,solubility,[8],75.3 µM
same,AUC(0-t) at 24 h,[9],536 ng·h/mL
same,Tmax,[10],31.2 min
same,AUC(0-t) at 24 h,[11],791 ng·h/mL
same,EC50,[12],430 nM
same,half-life,[13],49.2 min
same,Cmax,[14],1590 ng/mL
same,Activity,[15],Active
same,remaining at 0.5 h,[16],100%
same,Activity,[17],inactive
same,inhibition,[18],inactive
same,Activity,[19],Active
same,Activity,[20],inactive
same,EC50,[21],760 nM
same,Activity,[22],60%
same,microsomal CLint at 10 µM,[23],9.57 µL/min/mg
same,remaining at 1.5 h,[24],91.5%
same,CC50 at 48 h,[25],99500 nM
same,Activity,[26],Active
same,selectivity ratio,[27],113
same,half-life,[28],19.8 min
same,Activity,[29],Active
same,Activity,[30],Dose-Dependent Effect
same,Activity,[31],Dose-Dependent Effect
same,remaining at 2 h,[32],89.8%
same,Activity,[33],Active
same,Activity,[34],Active
same,Activity,[35],Active
same,bioavailability,[36],6.13%
same,AUC(0-t) at 24 h,[37],164 ng·h/mL
same,half-life at 10 µM,[38],103 min
same,solubility,[39],78.2 µM
same,microsomal CLint at 10 µM,[40],134 µL/min/mg
same,clearance,[41],53.8 mL/min/kg
same,Activity,[42],Dose-Dependent Effect
same,logD,[43],3.25
same,Activity,[44],inactive
same,half-life at 10 µM,[45],9.2 min
same,Cmax,[46],890 ng/mL
same,EC50,[47],1120 nM
